Experimental data from ChEMBL document CHEMBL2311262, “Structure activity relationship studies of tricyclic bispyran sulfone γ-secretase inhibitors” (Bioorg Med Chem Lett, 2013).
Blank lines part the entries; values can stand above or below the compound they belong to.

How the values were obtained:
Gamma-secretase [1] = assay: Inhibition of gamma secretase-mediated amyloid beta40 production in HEK293 cell membranes transfected with human APPSOW and APPLON mutant after 5 hrs by sandwich immunoassay; assay type: cell-based
Gamma-secretase [2] = assay: Inhibition of gamma secretase-mediated amyloid beta42 production in HEK293 cells transfected with human APPSOW and APPLON after 5 hrs by sandwich immunoassay; assay type: cell-based
Gamma-secretase [3] = assay: Inhibition of gamma secretase-mediated amyloid beta40 production in HEK293 cells transfected with human APPSOW and APPLON after 5 hrs by sandwich immunoassay; assay type: cell-based
Homo sapiens = species: Homo sapiens; assay: Selectivity ratio of inhibition of PS2 (unknown origin) to inhibition of PS1 (unknown origin)
Mus musculus [4] = assay: Inhibition of gamma secretase in B6C3F1 mouse assessed as […] in plasma amyloid beta40 production at 10 mg/kg, po measured at 3 hrs; assay type: functional
[5] = Ratio of drug level in brain to plasma in rat at 6 hrs; assay type: ADME; conditions: read-out: BPR
Mus musculus [6] = assay: Inhibition of gamma secretase in po dosed B6C3F1 mouse assessed as lowering of plasma amyloid beta40 production measured at 3 hrs; assay type: functional
[7] = Cmax in monkey at 10 mg/kg, po; assay type: ADME, organism-based, Macaca mulatta; set-up: dose 10 mg/kg, route oral; conditions: rhesus monkey, in vivo
Rattus norvegicus [8] = assay: Inhibition of gamma secretase in po dosed CD rat assessed as lowering of plasma amyloid beta40 production measured at 3 hrs; assay type: functional
[9] = AUC (0 to infinity) in dog at 10 mg/kg, po; assay type: ADME, organism-based, Canis lupus familiaris; set-up: time infinity, dose 10 mg/kg, route oral; conditions: plasma
Gamma-secretase [10] = assay: Inhibition of gamma secretase-mediated notch cleavage in HEK293 cells expressing human notch protein with truncated extracellular EGF repeat domain by sandwich immunoassay; assay type: cell-based
Rattus norvegicus [11] = assay: Inhibition of gamma secretase in po dosed CD rat assessed as lowering of CSF amyloid beta40 production measured at 3 hrs; assay type: functional
[12] = Clearance in rat at 5 mg/kg, iv; assay type: ADME, organism-based; set-up: dose 5 mg/kg, route intravenous; conditions: in vivo
[13] = Clearance in dog at 2.5 mg/kg, iv; assay type: ADME, organism-based, Canis lupus familiaris; set-up: dose 2.5 mg/kg, route intravenous; conditions: in vivo
[14] = Tmax in monkey at 10 mg/kg, po; assay type: ADME, organism-based, Macaca mulatta; set-up: dose 10 mg/kg, route oral; conditions: rhesus monkey, in vivo
Mus musculus [15] = assay: Inhibition of gamma secretase in po dosed B6C3F1 mouse assessed as lowering of cortex amyloid beta40 production measured at 3 hrs; assay type: functional
[16] = Inhibition of CYP450 (unknown origin); assay type: ADME, Homo sapiens
[17] = Tmax in dog at 10 mg/kg, po; assay type: ADME, organism-based, Canis lupus familiaris; set-up: dose 10 mg/kg, route oral; conditions: in vivo
hERG (KCNH2) = hERG (KCNH2) (Homo sapiens, UniProt Q12809); assay: Inhibition of human ERG at 10 uM by voltage clamp assay
[18] = Half life in dog at 10 mg/kg, po; assay type: ADME, organism-based, Canis lupus familiaris; set-up: dose 10 mg/kg, route oral; conditions: in vivo
[19] = Half life in monkey at 10 mg/kg, po; assay type: ADME, organism-based, Macaca mulatta; set-up: dose 10 mg/kg, route oral; conditions: rhesus monkey, in vivo
[20] = Tmax in rat at 10 mg/kg, po; assay type: ADME, organism-based; set-up: dose 10 mg/kg, route oral; conditions: in vivo
[21] = Half life in rat at 10 mg/kg, po; assay type: ADME, organism-based; set-up: dose 10 mg/kg, route oral; conditions: in vivo
[22] = Cmax in rat at 10 mg/kg, po; assay type: ADME, organism-based; set-up: dose 10 mg/kg, route oral; conditions: in vivo
[23] = Oral bioavailability in dog at 10 mg/kg; assay type: ADME, organism-based, Canis lupus familiaris; conditions: in vivo
[24] = Cmax in dog at 10 mg/kg, po; assay type: ADME, organism-based, Canis lupus familiaris; set-up: dose 10 mg/kg, route oral; conditions: in vivo
[25] = Volume of distribution at steady state in rat at 5 mg/kg, iv; assay type: ADME, organism-based; set-up: dose 5 mg/kg, route intravenous; conditions: in vivo, read-out: Vdss
[26] = AUC (0 to infinity) in rat at 10 mg/kg, po; assay type: ADME, organism-based; set-up: time infinity, dose 10 mg/kg, route oral; conditions: plasma
Rattus norvegicus [27] = assay: Inhibition of gamma secretase in po dosed CD rat assessed as lowering of cortex amyloid beta40 production measured at 3 hrs; assay type: functional
[28] = Clearance in monkey at 2.5 mg/kg, iv; assay type: ADME, organism-based, Macaca mulatta; set-up: dose 2.5 mg/kg, route intravenous; conditions: rhesus monkey, in vivo
[29] = Oral bioavailability in rat at 10 mg/kg; assay type: ADME, organism-based; conditions: in vivo
[30] = Oral bioavailability in monkey at 10 mg/kg; assay type: ADME, organism-based, Macaca mulatta; conditions: rhesus monkey, in vivo
[31] = Volume of distribution at steady state in monkey at 2.5 mg/kg, iv; assay type: ADME, organism-based, Macaca mulatta; set-up: dose 2.5 mg/kg, route intravenous; conditions: rhesus monkey, in vivo, read-out: Vdss
[32] = AUC (0 to infinity) in monkey at 10 mg/kg, po; assay type: ADME, organism-based, Macaca mulatta; set-up: time infinity, dose 10 mg/kg, route oral; conditions: rhesus monkey, plasma
[33] = Volume of distribution at steady state in dog at 2.5 mg/kg, iv; assay type: ADME, organism-based, Canis lupus familiaris; set-up: dose 2.5 mg/kg, route intravenous; conditions: in vivo, read-out: Vdss

hERG (KCNH2), sequence (Q12809 whole entry): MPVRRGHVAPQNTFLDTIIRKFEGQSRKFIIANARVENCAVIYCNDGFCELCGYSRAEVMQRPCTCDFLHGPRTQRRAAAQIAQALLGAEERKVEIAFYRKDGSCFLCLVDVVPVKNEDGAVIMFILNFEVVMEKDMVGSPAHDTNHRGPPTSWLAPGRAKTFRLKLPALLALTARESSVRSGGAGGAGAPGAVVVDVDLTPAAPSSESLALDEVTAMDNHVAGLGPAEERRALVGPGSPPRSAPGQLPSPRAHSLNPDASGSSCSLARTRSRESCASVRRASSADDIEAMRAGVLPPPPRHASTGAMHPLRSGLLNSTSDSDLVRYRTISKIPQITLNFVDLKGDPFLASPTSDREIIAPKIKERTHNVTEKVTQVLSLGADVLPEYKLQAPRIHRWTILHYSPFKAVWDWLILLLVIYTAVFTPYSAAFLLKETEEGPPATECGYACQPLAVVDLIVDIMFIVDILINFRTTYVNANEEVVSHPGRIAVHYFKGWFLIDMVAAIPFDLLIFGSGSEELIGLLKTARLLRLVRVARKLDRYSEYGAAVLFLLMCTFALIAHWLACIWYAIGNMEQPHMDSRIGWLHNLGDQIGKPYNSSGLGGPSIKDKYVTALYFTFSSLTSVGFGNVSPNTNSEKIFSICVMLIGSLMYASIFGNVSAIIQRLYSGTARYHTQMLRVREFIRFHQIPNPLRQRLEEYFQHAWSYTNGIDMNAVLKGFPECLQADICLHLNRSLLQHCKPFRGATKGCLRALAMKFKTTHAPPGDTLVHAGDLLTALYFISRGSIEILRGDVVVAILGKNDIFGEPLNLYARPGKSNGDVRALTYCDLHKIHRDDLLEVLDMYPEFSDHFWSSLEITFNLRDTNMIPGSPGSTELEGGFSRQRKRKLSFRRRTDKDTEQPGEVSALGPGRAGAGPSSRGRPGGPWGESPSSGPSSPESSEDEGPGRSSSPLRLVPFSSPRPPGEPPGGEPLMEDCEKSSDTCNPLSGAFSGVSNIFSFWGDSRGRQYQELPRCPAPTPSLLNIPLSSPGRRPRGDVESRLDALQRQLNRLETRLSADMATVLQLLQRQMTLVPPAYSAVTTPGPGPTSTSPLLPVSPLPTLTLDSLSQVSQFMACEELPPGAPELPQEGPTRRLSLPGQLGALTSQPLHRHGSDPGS

IC50 (Gamma-secretase [1]): 580 nM
IC50 (Gamma-secretase [2]): 120 nM
IC50 (Gamma-secretase [3]): 400 nM
SMILES: CS(=O)(=O)CC[C@@H]1OCC[C@@]2(S(=O)(=O)c3ccc(C#N)c(C#N)c3)c3c(F)ccc(F)c3OC[C@@H]12

IC50 (Gamma-secretase [1]): 7.4 nM
IC50 (Gamma-secretase [2]): 4.4 nM
IC50 (Gamma-secretase [3]): 13 nM
SMILES: O=S(=O)(CC[C@@H]1OCC[C@@]2(S(=O)(=O)c3ccc(Cl)cc3)c3c(F)ccc(F)c3OC[C@@H]12)C(F)(F)F

IC50 (Gamma-secretase [1]): 6.8 nM
IC50 (Gamma-secretase [2]): 5 nM
IC50 (Gamma-secretase [3]): 11 nM
SMILES: CCCS(=O)(=O)CC[C@@H]1OCC[C@@]2(S(=O)(=O)c3ccc(Cl)cc3)c3c(F)ccc(F)c3OC[C@@H]12

IC50 (Gamma-secretase [1]): 1.3 nM
IC50 (Gamma-secretase [2]): 1 nM
IC50 (Gamma-secretase [3]): 4 nM
Selectivity ratio (Homo sapiens): 19
SMILES: CS(=O)(=O)CC[C@@H]1OCC[C@@]2(S(=O)(=O)c3ccc(Cl)cc3)c3c(F)ccc(F)c3OC[C@@H]12

IC50 (Gamma-secretase [1]): 66 nM
IC50 (Gamma-secretase [2]): 8.9 nM
IC50 (Gamma-secretase [3]): 25 nM
SMILES: CS(=O)(=O)CC[C@@H]1OCC[C@@]2(S(=O)(=O)c3ccc(C#N)cc3)c3c(F)ccc(F)c3OC[C@@H]12

IC50 (Gamma-secretase [1]): 1.4 nM
IC50 (Gamma-secretase [2]): 1.8 nM
IC50 (Gamma-secretase [3]): 1.5 nM
SMILES: O=S(=O)(CC[C@@H]1OCC[C@@]2(S(=O)(=O)c3ccc(Cl)cc3)c3c(F)ccc(F)c3OC[C@@H]12)c1ncc[nH]1

IC50 (Gamma-secretase [1]): 3 nM
IC50 (Gamma-secretase [2]): 2 nM
IC50 (Gamma-secretase [3]): 5 nM
SMILES: CCS(=O)(=O)CC[C@@H]1OCC[C@@]2(S(=O)(=O)c3ccc(Cl)cc3)c3c(F)ccc(F)c3OC[C@@H]12

IC50 (Gamma-secretase [1]): 2.9 nM
IC50 (Gamma-secretase [2]): 0.6 nM
IC50 (Gamma-secretase [3]): 2.5 nM
SMILES: CS(=O)(=O)CC[C@@H]1OCC[C@@]2(S(=O)(=O)c3ccc(Br)cc3)c3c(F)ccc(F)c3OC[C@@H]12

IC50 (Gamma-secretase [1]): 5100 nM
SMILES: CS(=O)(=O)CC[C@@H]1OCC[C@@]2(S(=O)(=O)c3ccc(OCC(F)(F)F)cc3)c3c(F)ccc(F)c3OC[C@@H]12

IC50 (Gamma-secretase [1]): 2.1 nM
IC50 (Gamma-secretase [2]): 4.7 nM
IC50 (Gamma-secretase [3]): 8.9 nM
SMILES: O=S(=O)(CC[C@@H]1OCC[C@@]2(S(=O)(=O)c3ccc(Cl)cc3)c3c(F)ccc(F)c3OC[C@@H]12)c1ncn[nH]1
inhibition in vivo at 10 mg/kg (Mus musculus [4]): 30%

IC50 (Gamma-secretase [1]): 4.5 nM
SMILES: O=S(=O)(CCCO)CC[C@@H]1OCC[C@@]2(S(=O)(=O)c3ccc(Cl)cc3)c3c(F)ccc(F)c3OC[C@@H]12

IC50 (Gamma-secretase [1]): 360 nM
SMILES: COc1ccc(S(=O)(=O)[C@@]23CCO[C@@H](CCS(C)(=O)=O)[C@@H]2COc2c(F)ccc(F)c23)cc1

IC50 (Gamma-secretase [1]): 4.3 nM
IC50 (Gamma-secretase [2]): 4.7 nM
IC50 (Gamma-secretase [3]): 13 nM
SMILES: O=S(=O)(CC[C@@H]1OCC[C@@]2(S(=O)(=O)c3ccc(Cl)cc3)c3c(F)ccc(F)c3OC[C@@H]12)c1cnn[nH]1

IC50 (Gamma-secretase [1]): 1 nM
IC50 (Gamma-secretase [2]): 0.9 nM
IC50 (Gamma-secretase [3]): 1.2 nM
Kp at 6 h [5]: 0.1
SMILES: O=S(=O)(CCO)CC[C@@H]1OCC[C@@]2(S(=O)(=O)c3ccc(Cl)cc3)c3c(F)ccc(F)c3OC[C@@H]12

Cmax [7]: 810 nM
AUC(0-inf) [9]: 46 µM·h
IC50 (Gamma-secretase [10]): 31 nM
clearance [12]: 40 mL/min/kg
clearance [13]: 4.6 mL/min/kg
IC50 (Gamma-secretase [1]): 15 nM
Tmax [14]: 5.3 h
IC50 [16]: > 10000 nM
Tmax [17]: 2.3 h
half-life [18]: 17 h
half-life [19]: 17 h
IC50 (Gamma-secretase [2]): 3.5 nM
Tmax [20]: 2 h
IC50 (Gamma-secretase [3]): 11 nM
half-life [21]: 3.6 h
Cmax [22]: 680 nM
bioavailability [23]: 100%
Cmax [24]: 1500 nM
Vd [25]: 8.9 L/kg
AUC(0-inf) [26]: 3.5 µM·h
clearance [28]: 6.5 mL/min/kg
bioavailability [29]: 44%
bioavailability [30]: 70%
Vd [31]: 6.6 L/kg
AUC(0-inf) [32]: 18 µM·h
Vd [33]: 6.1 L/kg
SMILES: CS(=O)(=O)CC[C@@H]1OCC[C@@]2(S(=O)(=O)c3ccc(C(F)(F)F)cc3)c3c(F)ccc(F)c3OC[C@@H]12
ED50 (Mus musculus [6]): 7.7 mg/kg
ED50 (Rattus norvegicus [8]): 1.9 mg/kg
ED50 (Rattus norvegicus [11]): 7.4 mg/kg
ED50 (Mus musculus [15]): 8 mg/kg
inhibition at 10 µM (hERG (KCNH2)): 31%
ED50 (Rattus norvegicus [27]): 2.8 mg/kg

IC50 (Gamma-secretase [1]): 2.7 nM
IC50 (Gamma-secretase [2]): 22 nM
IC50 (Gamma-secretase [3]): 38 nM
Kp at 6 h [5]: 0.1
SMILES: O=C(O)CS(=O)(=O)CC[C@@H]1OCC[C@@]2(S(=O)(=O)c3ccc(Cl)cc3)c3c(F)ccc(F)c3OC[C@@H]12
inhibition in vivo at 10 mg/kg (Mus musculus [4]): 47%

IC50 (Gamma-secretase [1]): 31 nM
IC50 (Gamma-secretase [2]): 1.4 nM
IC50 (Gamma-secretase [3]): 14 nM
SMILES: CS(=O)(=O)CC[C@@H]1OCC[C@@]2(S(=O)(=O)c3ccc(F)c(F)c3)c3c(F)ccc(F)c3OC[C@@H]12

IC50 (Gamma-secretase [1]): 5.5 nM
IC50 (Gamma-secretase [2]): 3 nM
IC50 (Gamma-secretase [3]): 8 nM
SMILES: CC(C)S(=O)(=O)CC[C@@H]1OCC[C@@]2(S(=O)(=O)c3ccc(Cl)cc3)c3c(F)ccc(F)c3OC[C@@H]12

IC50 (Gamma-secretase [1]): 7.3 nM
IC50 (Gamma-secretase [2]): 6.4 nM
IC50 (Gamma-secretase [3]): 22 nM
SMILES: O=S(=O)(CC[C@@H]1OCC[C@@]2(S(=O)(=O)c3ccc(Cl)cc3)c3c(F)ccc(F)c3OC[C@@H]12)CC(F)(F)F

IC50 (Gamma-secretase [1]): 2.1 nM
SMILES: O=S(=O)(CC[C@@H]1OCC[C@@]2(S(=O)(=O)c3ccc(Cl)cc3)c3c(F)ccc(F)c3OC[C@@H]12)C1CC1

IC50 (Gamma-secretase [1]): 250 nM
SMILES: CS(=O)(=O)CC[C@@H]1OCC[C@@]2(S(=O)(=O)c3cc(F)cc(F)c3)c3c(F)ccc(F)c3OC[C@@H]12
